Usually pEC50 stands for the negative decadic logarithm of the EC50, by convention in mol/L. Broadly, the pIC50 is −log10 of the IC50, conventionally taken in molar units.

Molecules are shown by their SMILES. pEC50, pIC50: −log10 of the molar value. Where “and” joins values, the source holds several entries; their conditions need not be identical. Equal values may be shown once. Entries after “also recorded” stand apart in the source; their conditions may differ.

This experiment has as its target T1, Human recombinant HDAC6 (Homo sapiens, UniProt Q9UBN7).
T1 sequence (Q9UBN7 1-1215): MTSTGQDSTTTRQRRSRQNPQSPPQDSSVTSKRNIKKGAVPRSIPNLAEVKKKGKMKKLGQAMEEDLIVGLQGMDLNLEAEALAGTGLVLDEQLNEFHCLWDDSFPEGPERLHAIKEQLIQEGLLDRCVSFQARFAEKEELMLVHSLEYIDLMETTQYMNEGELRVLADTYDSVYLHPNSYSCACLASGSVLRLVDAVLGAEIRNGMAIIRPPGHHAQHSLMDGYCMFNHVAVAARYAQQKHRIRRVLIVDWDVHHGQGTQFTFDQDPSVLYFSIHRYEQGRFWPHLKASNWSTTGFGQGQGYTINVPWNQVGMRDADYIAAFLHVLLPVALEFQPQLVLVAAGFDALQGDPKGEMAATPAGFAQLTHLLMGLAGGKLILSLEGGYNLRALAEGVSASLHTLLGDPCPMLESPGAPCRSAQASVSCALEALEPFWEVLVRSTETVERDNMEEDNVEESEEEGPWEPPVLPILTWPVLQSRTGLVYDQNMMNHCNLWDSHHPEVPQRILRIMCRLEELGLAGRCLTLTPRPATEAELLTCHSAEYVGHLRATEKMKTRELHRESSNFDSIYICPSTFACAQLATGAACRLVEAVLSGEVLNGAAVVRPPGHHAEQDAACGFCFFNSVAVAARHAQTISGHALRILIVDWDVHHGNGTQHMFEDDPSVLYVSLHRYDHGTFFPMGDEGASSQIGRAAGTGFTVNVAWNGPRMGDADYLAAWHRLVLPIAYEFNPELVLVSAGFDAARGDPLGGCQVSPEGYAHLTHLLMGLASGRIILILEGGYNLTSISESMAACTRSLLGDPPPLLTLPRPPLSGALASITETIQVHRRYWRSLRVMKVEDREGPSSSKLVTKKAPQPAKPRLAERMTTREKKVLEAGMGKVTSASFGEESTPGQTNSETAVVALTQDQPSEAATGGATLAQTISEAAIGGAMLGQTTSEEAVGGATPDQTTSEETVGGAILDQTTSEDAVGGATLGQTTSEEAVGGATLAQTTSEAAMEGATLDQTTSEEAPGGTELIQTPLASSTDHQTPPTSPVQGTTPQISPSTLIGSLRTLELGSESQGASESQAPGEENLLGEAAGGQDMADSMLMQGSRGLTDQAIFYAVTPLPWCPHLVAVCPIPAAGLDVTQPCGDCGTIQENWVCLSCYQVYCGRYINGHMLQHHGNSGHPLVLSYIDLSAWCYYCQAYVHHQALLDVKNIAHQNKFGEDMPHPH
The experiment is described as follows: HDAC isomer assay, Fluor-de-Lys, HDAC6. It counts as biochemical. As to conditions: for pEC50: Example 4, FIGS. 5, 6 and 8, read-out: EC50 against HDAC6; for greater potency for HDAC6 as compared to HDAC1: FIG. 14; for selectivity for HDAC6 as compared to pan-HDACs (and HDAC1, HDAC3), in words: FIGS. 1, 7, 8, 18. As to the method: The HDAC isomer (HDAC1, 3, and 6) assays were performed as follows:
Materials: Human recombinant HDAC isomer (HDAC1, HDAC3, and HDAC6); Fluor-de-Lys HDAC substrates; 360 nm excitation 460 nm emission Plate Reader; Disposable pipettes; Pipet-aid; Pipette tips; Micro-pipetter; DMSO; Sterile micro-tubes and conical tubes; and Micro-centrifuge.
Test compounds and control preparation: All test compounds' stock solutions were made in 100% DMSO. Test compound dilutions were made in HDAC Assay buffer with a final concentration of DMSO less than or equal to 1%. Vehicle control was HDAC Assay buffer with 1% DMSO.
The reagents for the assay were prepared as follows:
1. All kit components were defrosted and these, and all dilutions described below, were kept on ice until use.
2. A sufficient amount of HDAC source diluted in Assay Buffer (BML-KI143) was prepared to provide for the assays that were performed (# of wells×15 μl). A 30-fold dilution of the HeLa Extract means that 15p L contains 0.5 μl of the undiluted Extract, an appropriate amount to use per well.
3. Dilution(s) of SAHA and/or Test Inhibitors were prepared in Assay Buffer (BML-KI143). Since 10 μl were used per well, and since the final volume of the HDAC reaction was 50p, these inhibitor dilutions were 5× their final concentration.
4. Dilution(s) of the Fluor de Lys® Substrate (BML-KI104; 50 mM) were prepared in Assay Buffer (BML-KI143) that were 2× the desired final concentration(s). For inhibitor screening, substrate concentrations at or below the Km are recommended. Twenty-five μL were used per well. […] Rapid mixing and dilution into room temperature buffer helped to prevent precipitation at high substrate concentration.
5. Shortly before use (<30 min.), sufficient Fluor de Lys® Developer was prepared for the assays to be performed (50 μl per well). First, the Fluor de Lys® Developer Concentrate was diluted 20-fold (e.g. 50 μl plus 950 μl Assay Buffer) in cold Assay Buffer (BML-K1143). […] The addition of SAHA to the Developer insures that HDAC activity stops when the Developer is added. The Developer was kept on ice until use.
1. Assay buffer, diluted trichostatin A or test inhibitor was added to appropriate wells of the microtiter plate.
2. Diluted HeLa extract or other HDAC sample was added to all wells except those that are to be “No Enzyme Controls.”
3. Diluted Fluor de Lys® Substrate and the samples in the microtiter plate were allowed to equilibrate to assay temperature (e.g. 25 or 37° C.).
4. HDAC reactions were initiated by adding diluted substrate (25 μl) to each well and mixing thoroughly.
5. HDAC reactions were allowed to proceed for desired length of time and then stop them by addition of Fluor de Lys® Developer (50 μl). The plates were incubated at room temperature (25° C.) for 10-15 min.
6. Samples were read in a microtiter-plate reading fluorimeter capable of excitation at a wavelength in the range 350-380 nm and detection of emitted light in the range 440-460 nm.

On to `O=C(CCCCCCC(=O)NC1CCC(=O)NC1=O)NO` (stereo not shown) [SP-2-59, N^1-(2,6-dioxopiperidin-3-yl)-N^8-hydroxyoctanediamide], for which the pEC50 is 7.28 and 7.17; the “greater potency for HDAC6 as compared to HDAC1” value worked out at 83 fold; the “selectivity for HDAC6 as compared to pan-HDACs (and HDAC1, HDAC3), in words” value (“selectivity for HDAC6” below) is “substantial preference and selectivity for HDAC6”.

As to `O=C(CCCCCCC(=O)Nc1cccc2c1CN(C1CCC(=O)NC1=O)C2=O)NO` (stereo not shown) [SP-2-93, N^1-(2-(2,6-dioxopiperidin-3-yl)-1-oxoisoindolin-4-yl)-N^8-hydroxyoctanediamide], the pEC50 was 8.21; the “greater potency for HDAC6 as compared to HDAC1” value is given as 258 fold; the “selectivity for HDAC6” value was “substantial preference and selectivity for HDAC6; also recorded: highly selective for HDAC 6”. For the same compound, for the setting “Example 6, FIG. 18”, the “more selective for HDAC6 as compared to HDAC1” value is reported as “about 26 times” and the “more selective for HDAC6 as compared to HDAC3” value is on record as “about 51 times”. Further, the negative-log IC50 (pIC50) (Example 6, FIG. 18, 2 mg/mL formulation in 5% DMSO/40% PEG 400/55% PBS, read-out: IC50 against HDAC6 protein) was 7.22. The “selectivity for HDAC6” value (listed as N^1-(2-(2,6-dioxopiperidin-3-yl)-1-oxoisoindolin-4-yl)-N^8-hydroxyoctanediamide) was “surprising selective for HDAC6”.

(Values after patent US11584733B2, “Selective histone deacetylase inhibitors for the treatment of human disease” (Shuttle Pharmaceuticals, Inc., priority 2017, dated 2023).)
